Data as given in article PMC7012011, “In vitro inhibitory effects of dihydromyricetin on human liver cytochrome P450 enzymes” (Pharmaceutical Biology, 2017).

Legend:
CYP2C8 = target: T1, CYP2C8 (Homo sapiens, UniProt P10632); experiment: CYP2C8 inhibition, paclitaxel 6α-hydroxylation in pooled HLMs; type: in vitro ADME; settings: DHM 100 μM
T1 construct: from tissue; host or cells: pooled human liver microsomes
T1 sequence (P10632 1-490): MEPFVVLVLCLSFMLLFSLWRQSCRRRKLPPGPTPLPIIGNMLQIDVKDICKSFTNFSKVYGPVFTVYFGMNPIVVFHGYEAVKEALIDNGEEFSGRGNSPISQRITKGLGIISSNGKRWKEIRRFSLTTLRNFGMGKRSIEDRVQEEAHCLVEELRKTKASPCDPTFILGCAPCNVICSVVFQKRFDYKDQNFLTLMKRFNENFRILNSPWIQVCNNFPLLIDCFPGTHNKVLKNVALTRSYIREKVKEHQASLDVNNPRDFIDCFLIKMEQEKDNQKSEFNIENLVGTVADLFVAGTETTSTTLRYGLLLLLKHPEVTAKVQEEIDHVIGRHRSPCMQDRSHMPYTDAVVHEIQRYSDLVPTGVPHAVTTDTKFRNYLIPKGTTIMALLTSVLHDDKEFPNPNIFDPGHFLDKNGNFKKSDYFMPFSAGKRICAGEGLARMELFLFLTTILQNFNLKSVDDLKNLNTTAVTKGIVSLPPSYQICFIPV
Protocol: (§1) All incubations were performed in triplicate, and the mean values were utilized. The typical incubation systems contained 100 mM potassium phosphate buffer (pH 7.4), NADPH-generating system (1 mM NADP^+, 10 mM glucose-6-phosphate, 1 U/mL of glucose-6-phosphate dehydrogenase, and 4 mM MgCl2), the appropriate concentration of HLM, a corresponding probe substrate and DHM (or positive inhibitor for different probe reactions) in a final volume of 200 μL.
(§2) The concentration of DHM was 100 μM, and the positive inhibitor concentrations were as follows: 10 μM furafylline for CYP1A2, 1 μM ketoconazole for CYP3A4, 10 μM tranylcypromine for CYP2A6, 50 μM clomethiazole for CYP2E1, 10 μM quinidine for CYP2D6, 10 μM sulphaphenazole for CYP2C9, 50 μM tranylcypromine for CYP2C19 and 5 μM montelukast for CYP2C8. Probe substrates, positive inhibitors (except for dextromethorphan and quinidine which were dissolved in water) and DHM were dissolved in methanol, with a final concentration of 1% (v/v), and 1% neat methanol was added to the incubations without inhibitor. […] The instrument used in this study were Agilent 1260 series instrument with DAD and FLD detector (Agilent Technologies, Palo Alto, CA), and the quantitative assay for the corresponding metabolites was performed as previously reported by us (Zhang et al. [2016]). […]

[1] = set-up: method as in Zhang et al. [2007]; Tong et al. [2015]; settings: rats, oral administration of 1564.8 mg/kg of Rattan Tea decoction; ref Zhang et al. [2007]; Tong et al. [2015]; cited from earlier work
CYP2C9 = target: T2, CYP2C9 (Homo sapiens, UniProt P11712); experiment: CYP2C9 inhibition, diclofenac 4'-hydroxylation in pooled HLMs; type: in vitro ADME; settings: DHM 100 μM
T2 construct: from tissue; host or cells: pooled human liver microsomes
Protocol: as §1, §2

CYP1A2 = target: T3, CYP1A2 (Homo sapiens, UniProt P05177); experiment: CYP1A2 inhibition, phenacetin O-deethylation in pooled HLMs; type: in vitro ADME; settings: DHM 100 μM
T3 construct: from tissue; host or cells: pooled human liver microsomes
T3 sequence (P05177 1-516): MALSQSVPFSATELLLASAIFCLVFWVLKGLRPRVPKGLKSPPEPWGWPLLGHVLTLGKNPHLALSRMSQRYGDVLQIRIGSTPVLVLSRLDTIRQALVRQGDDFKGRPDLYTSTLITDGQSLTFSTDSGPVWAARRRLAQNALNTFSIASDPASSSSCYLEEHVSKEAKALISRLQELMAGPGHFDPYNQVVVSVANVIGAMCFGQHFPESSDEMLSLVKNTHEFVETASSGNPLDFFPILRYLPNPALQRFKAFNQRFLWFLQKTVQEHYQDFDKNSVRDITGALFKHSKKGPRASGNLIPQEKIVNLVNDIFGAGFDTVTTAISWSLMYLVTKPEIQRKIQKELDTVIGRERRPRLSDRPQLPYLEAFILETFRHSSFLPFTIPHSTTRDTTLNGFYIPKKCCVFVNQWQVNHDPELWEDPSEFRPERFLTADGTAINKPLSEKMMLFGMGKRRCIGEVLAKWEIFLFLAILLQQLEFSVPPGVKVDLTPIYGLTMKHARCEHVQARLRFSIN
Protocol: as §1, §2

CYP2A6 = target: T4, CYP2A6 (Homo sapiens, UniProt P11509); experiment: CYP2A6 inhibition, coumarin 7-hydroxylation in pooled HLMs; type: in vitro ADME; settings: DHM 100 μM
T4 construct: from tissue; host or cells: pooled human liver microsomes
T4 sequence (P11509 1-494): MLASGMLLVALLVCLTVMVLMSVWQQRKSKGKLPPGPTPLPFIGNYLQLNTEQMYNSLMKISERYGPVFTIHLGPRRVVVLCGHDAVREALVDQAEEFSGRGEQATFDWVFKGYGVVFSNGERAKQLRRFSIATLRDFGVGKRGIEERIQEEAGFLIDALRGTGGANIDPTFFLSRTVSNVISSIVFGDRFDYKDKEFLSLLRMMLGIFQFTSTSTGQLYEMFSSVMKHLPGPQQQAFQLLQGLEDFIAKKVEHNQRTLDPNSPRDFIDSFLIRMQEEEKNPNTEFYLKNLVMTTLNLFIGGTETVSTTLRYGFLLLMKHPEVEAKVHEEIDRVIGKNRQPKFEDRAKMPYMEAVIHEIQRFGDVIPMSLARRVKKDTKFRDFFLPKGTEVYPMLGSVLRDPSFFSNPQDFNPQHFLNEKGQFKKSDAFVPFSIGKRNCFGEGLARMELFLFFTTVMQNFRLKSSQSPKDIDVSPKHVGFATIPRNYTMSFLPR
Protocol: as §1, §2

CYP2E1 [2] = target: T5, CYP2E1 (Homo sapiens, UniProt P05181); experiment: Time-dependent inhibition study of CYP2E1 in HLMs; type: in vitro ADME; settings: DHM 20 μM, pre-incubation with HLM and NADPH for 30 min
T5 construct: CYP2E1 catalyzed reactions (chlorzoxazone 6-hydroxylation) in pooled HLM; from tissue; host or cells: pooled human liver microsomes
Protocol: (§3) To determine whether DHM could inhibit the activity of CYP3A4, CYP2E1 and CYP2D6 in a time-dependent manner, DHM (20 μM) was pre-incubated with HLMs (1 mg/mL) in the presence of an NADPH-generating system for 30 min at 37 °C. After incubation, an aliquot (20 μL) was transferred to another incubation tube (a final volume of 200 μL) containing an NADPH-generating system and probe substrates whose final concentrations were approximate to Km. Then, further incubations were performed to measure the residual activity. After being incubated for 10 and 30 min, the reactions were terminated by adding a 100 μL acetonitrile internal standard mix and then placed on ice; the corresponding metabolites was determined by HPLC.

CYP2D6 [3] = target: T6, CYP2D6 (Homo sapiens, UniProt P10635); experiment: CYP2D6 inhibition, dextromethorphan O-demethylation in pooled HLMs; type: in vitro ADME
T6 construct: CYP2D6 catalyzed reactions (dextromethorphan O-demethylation) in pooled HLM; from tissue; host or cells: pooled human liver microsomes
Protocol: as §1
(§4) The concentration of DHM was 100 μM, and the positive inhibitor concentrations were as follows: 10 μM furafylline for CYP1A2, 1 μM ketoconazole for CYP3A4, 10 μM tranylcypromine for CYP2A6, 50 μM clomethiazole for CYP2E1, 10 μM quinidine for CYP2D6, 10 μM sulphaphenazole for CYP2C9, 50 μM tranylcypromine for CYP2C19 and 5 μM montelukast for CYP2C8. Probe substrates, positive inhibitors (except for dextromethorphan and quinidine which were dissolved in water) and DHM were dissolved in methanol, with a final concentration of 1% (v/v), and 1% neat methanol was added to the incubations without inhibitor. There was a 3-min preincubation period (at 37 °C) before the reaction was initiated by adding a NADPH-generating system. The reaction was terminated by adding a 100 μL acetonitrile (10% trichloroacetic acid for CYP2A6) internal standard mix, and the solution was placed on ice. The mixture was centrifuged at 12,000 rpm for 10 min, and an aliquot (50 μL) of supernatant was transferred for HPLC analysis. The instrument used in this study were Agilent 1260 series instrument with DAD and FLD detector (Agilent Technologies, Palo Alto, CA), and the quantitative assay for the corresponding metabolites was performed as previously reported by us (Zhang et al. [2016]).
(§5) A 100 μM DHM was used to initially screen for its direct inhibitory effects toward different human CYP isoforms. […] The residual activity of the CYP isoforms were measured by adding different concentrations of DHM (0–100 μM), and then the IC50 values were calculated. […]
(§6) The enzyme kinetic parameters for the probe reaction were estimated from the best fit line using least-squares linear regression of the inverse substrate concentration versus the inverse velocity (Lineweaver–Burk plots), and the mean values were used to calculate Vmax and Km. Inhibition data from the experiments that were conducted using multiple compound concentrations were represented by Dixon plots, and inhibition constant (Ki) values were calculated using non-linear regression according to the following equation: v=(VmaxS)/(Km(1+I/Ki)+S), where I is the concentration of the compound, Ki is the inhibition constant, S is the concentration of the substrate and Km is the substrate concentration at half the maximum velocity (Vmax) of the reaction. […]

CYP3A4 [4] = target: T7, CYP3A4 (Homo sapiens, UniProt P08684); experiment: CYP3A4 inhibition, testosterone 6β-hydroxylation in pooled HLMs; type: in vitro ADME
T7 construct: CYP3A4 catalyzed reactions (testosterone 6β-hydroxylation) in pooled HLM; from tissue; host or cells: pooled human liver microsomes
Protocol: as §1, §4, §5, §6

CYP3A4 [5] = target: T7, CYP3A4; experiment: Time-dependent inhibition study of CYP3A4 in HLMs; type: in vitro ADME
Protocol: as §3
To determine the KI and kinact values for the inactivation of CYP3A4, the incubations were conducted using higher probe substrate concentrations (approximately four-fold Km values) and various concentrations of DHM (0–50 μM) after different preincubation times (0–30 min), with a two-step incubation scheme, as described above.

CYP2E1 [6] = target: T5, CYP2E1; experiment: CYP2E1 inhibition, chlorzoxazone 6-hydroxylation in pooled HLMs; type: in vitro ADME
CYP2C19 = target: T8, CYP2C19 (Homo sapiens, UniProt P33261); experiment: CYP2C19 inhibition, S-mephenytoin 4-hydroxylation in pooled HLMs; type: in vitro ADME; settings: DHM 100 μM
T8 construct: from tissue; host or cells: pooled human liver microsomes
Protocol: as §1, §2

CYP2D6 [7] = target: T6, CYP2D6; experiment: Time-dependent inhibition study of CYP2D6 in HLMs; type: in vitro ADME; settings: DHM 20 μM, pre-incubation with HLM and NADPH for 30 min
Protocol: as §3

T7 sequence (P08684 whole entry): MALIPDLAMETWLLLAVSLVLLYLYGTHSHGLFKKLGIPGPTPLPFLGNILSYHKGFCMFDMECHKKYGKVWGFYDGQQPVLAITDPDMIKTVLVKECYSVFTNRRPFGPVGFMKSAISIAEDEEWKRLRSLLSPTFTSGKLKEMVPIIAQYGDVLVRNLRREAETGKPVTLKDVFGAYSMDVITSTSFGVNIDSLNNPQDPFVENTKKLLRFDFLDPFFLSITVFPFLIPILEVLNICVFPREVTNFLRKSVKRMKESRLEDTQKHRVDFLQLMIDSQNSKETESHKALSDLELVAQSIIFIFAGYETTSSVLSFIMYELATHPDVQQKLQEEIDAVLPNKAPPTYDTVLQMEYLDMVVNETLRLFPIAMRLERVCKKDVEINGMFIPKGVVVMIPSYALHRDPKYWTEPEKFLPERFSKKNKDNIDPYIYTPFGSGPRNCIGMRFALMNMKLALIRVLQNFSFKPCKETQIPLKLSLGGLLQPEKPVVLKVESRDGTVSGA
T5 sequence (P05181 whole entry): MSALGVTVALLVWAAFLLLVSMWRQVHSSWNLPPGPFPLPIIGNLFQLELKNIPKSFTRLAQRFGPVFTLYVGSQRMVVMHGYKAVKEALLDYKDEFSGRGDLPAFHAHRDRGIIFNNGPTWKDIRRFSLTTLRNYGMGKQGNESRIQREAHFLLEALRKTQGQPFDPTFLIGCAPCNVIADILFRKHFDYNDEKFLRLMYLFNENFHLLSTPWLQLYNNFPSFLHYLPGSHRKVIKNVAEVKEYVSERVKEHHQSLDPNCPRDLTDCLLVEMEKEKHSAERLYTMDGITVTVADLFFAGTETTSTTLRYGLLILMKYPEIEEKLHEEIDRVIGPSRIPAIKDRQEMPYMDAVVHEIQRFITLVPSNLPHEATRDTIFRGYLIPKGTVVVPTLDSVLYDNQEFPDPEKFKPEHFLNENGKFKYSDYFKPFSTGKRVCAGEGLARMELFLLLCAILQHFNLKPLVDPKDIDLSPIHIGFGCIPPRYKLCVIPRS
T6 sequence (P10635 whole entry): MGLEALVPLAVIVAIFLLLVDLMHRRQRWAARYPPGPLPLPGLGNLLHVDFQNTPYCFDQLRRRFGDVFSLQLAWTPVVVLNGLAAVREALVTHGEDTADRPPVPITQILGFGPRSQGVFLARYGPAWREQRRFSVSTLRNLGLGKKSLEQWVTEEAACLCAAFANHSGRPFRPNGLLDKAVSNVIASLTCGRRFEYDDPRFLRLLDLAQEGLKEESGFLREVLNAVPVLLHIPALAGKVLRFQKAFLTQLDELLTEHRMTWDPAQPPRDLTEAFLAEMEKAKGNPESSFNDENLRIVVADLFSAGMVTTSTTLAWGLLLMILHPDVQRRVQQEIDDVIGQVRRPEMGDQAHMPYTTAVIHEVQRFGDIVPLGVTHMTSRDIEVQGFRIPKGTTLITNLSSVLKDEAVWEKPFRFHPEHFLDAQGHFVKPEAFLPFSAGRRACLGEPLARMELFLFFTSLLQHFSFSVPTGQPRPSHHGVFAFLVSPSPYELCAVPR
T8 sequence (P33261 whole entry): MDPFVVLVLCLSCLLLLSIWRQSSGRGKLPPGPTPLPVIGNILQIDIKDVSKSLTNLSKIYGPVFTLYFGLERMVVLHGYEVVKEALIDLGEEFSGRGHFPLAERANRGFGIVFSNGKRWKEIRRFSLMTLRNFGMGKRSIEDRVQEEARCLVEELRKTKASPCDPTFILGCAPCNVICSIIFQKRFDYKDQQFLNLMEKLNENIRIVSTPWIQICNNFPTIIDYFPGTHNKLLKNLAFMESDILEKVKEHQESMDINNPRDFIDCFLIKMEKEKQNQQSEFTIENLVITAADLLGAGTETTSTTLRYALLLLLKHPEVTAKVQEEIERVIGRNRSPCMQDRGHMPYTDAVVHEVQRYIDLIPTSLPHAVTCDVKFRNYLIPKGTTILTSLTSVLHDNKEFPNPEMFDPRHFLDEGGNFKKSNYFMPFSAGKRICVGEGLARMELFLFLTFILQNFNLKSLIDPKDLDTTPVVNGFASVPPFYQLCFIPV
T2 sequence (P11712 whole entry): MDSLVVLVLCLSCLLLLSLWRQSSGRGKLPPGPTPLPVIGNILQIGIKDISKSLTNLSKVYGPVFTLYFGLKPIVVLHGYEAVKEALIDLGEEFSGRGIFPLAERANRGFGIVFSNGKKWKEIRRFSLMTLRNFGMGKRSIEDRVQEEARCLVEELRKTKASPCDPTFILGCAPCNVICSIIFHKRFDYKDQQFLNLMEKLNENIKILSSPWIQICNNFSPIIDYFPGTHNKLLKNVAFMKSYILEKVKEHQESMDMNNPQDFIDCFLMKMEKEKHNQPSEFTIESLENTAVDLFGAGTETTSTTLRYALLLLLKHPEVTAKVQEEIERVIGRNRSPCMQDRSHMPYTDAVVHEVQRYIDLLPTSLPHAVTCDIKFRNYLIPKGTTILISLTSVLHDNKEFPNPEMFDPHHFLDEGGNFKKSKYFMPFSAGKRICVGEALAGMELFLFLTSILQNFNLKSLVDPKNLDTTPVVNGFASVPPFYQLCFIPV

- Inhibition of CYP2C8 activity (CYP2C8): did not inhibit
- Inhibition of CYP2C9 activity (CYP2C9): did not inhibit
- Inhibition of CYP1A2 activity (CYP1A2): did not inhibit
- Inhibition of CYP2A6 activity (CYP2A6): did not inhibit
- Time-dependent inhibition: activity of CYP2E1 after pre-incubation (CYP2E1 [2]): not affected
- IC50 (CYP2D6 [3]; DHM 0–100 μM, pooled HLMs): 22.7 µM
- Manner of inhibition of CYP2D6 (CYP2D6 [3]; Lineweaver–Burk plots): competitive
- inhibition at 100 μM (CYP2D6 [3]; human, pooled human liver microsomes, pH 7.4, probe dextromethorphan (O-demethylation), DHM 100 μM, pooled HLMs, read-out: CYP2D6 activity inhibited to % of control activity): 85.3%
- Ki (CYP2D6 [3]; secondary Lineweaver–Burk plot, dextromethorphan 5–50 μM, DHM 0–50 μM, pooled HLM): 10.5 µM
- IC50 (CYP3A4 [4]; DHM 0–100 μM, pooled HLMs): 14.8 µM
- Manner of inhibition of CYP3A4 (CYP3A4 [4]; Lineweaver–Burk plots): non-competitive
- inhibition at 100 μM (CYP3A4 [4]; human, pooled human liver microsomes, pH 7.4, probe testosterone (6β-hydroxylation), DHM 100 μM, pooled HLMs, read-out: CYP3A4 activity inhibited to % of control activity): 87.7%
- Ki (CYP3A4 [4]; secondary Lineweaver–Burk plot, testosterone 20–100 μM, pooled HLM): 6.06 µM
- Time-dependent inhibition: activity of CYP3A4 after pre-incubation (CYP3A4 [5]; DHM 20 μM, pre-incubation with HLM and NADPH for 30 min): decreased with the incubation time
- KI (inactivation) (CYP3A4 [5]; human, human liver microsomes, DHM 0–50 μM, preincubation 0–30 min, non-linear regression, HLM): 12.2 µM
- kinact (CYP3A4 [5]; human, human liver microsomes, DHM 0–50 μM, preincubation 0–30 min, non-linear regression, HLM, read-out: Kinact for inactivation of CYP3A4 (converted)): 0.00095 s⁻¹
- CYP3A4 inactivated each minute (CYP3A4 [5]; saturating concentration of DHM incubated with HLM, implied by Kinact): approximately 5.7%
- IC50 (CYP2E1 [6]; DHM 0–100 μM, pooled HLMs): 25.7 µM
- Manner of inhibition of CYP2E1 (CYP2E1 [6]; Lineweaver–Burk plots): competitive
- inhibition at 100 μM (CYP2E1 [6]; human, pooled human liver microsomes, pH 7.4, probe chlorzoxazone (6-hydroxylation), DHM 100 μM, pooled HLMs, read-out: CYP2E1 activity inhibited to % of control activity): 74.6%
- Ki (CYP2E1 [6]; secondary Lineweaver–Burk plot, chlorzoxazone, DHM 0–50 μM, pooled HLM): 9.24 µM
- Inhibition of CYP2C19 activity (CYP2C19): did not inhibit
- Time-dependent inhibition: activity of CYP2D6 after pre-incubation (CYP2D6 [7]): not affected
Structure (SMILES): O=C1c2c(O)cc(O)cc2O[C@H](c2cc(O)c(O)c(O)c2)[C@H]1O [DHM, Dihydromyricetin]
- Cmax [1]: 1700 ng/mL
